The target of assay [1] is T1, Delta-type opioid receptor (Homo sapiens, UniProt P41143). Briefly: Displacement of [3H]bremazocine from human delta opioid receptor expressed in CHO cells in presence of high sodium by SPA. Type of assay: cell-based.
In assay [2] the target is T2, Mu-type opioid receptor (Homo sapiens, UniProt P35372). In words: Displacement of [3H]diprenorphine from human mu opioid receptor expressed in CHO cells in presence of high sodium by SPA. Type of assay: cell-based.
Assay [3] deals with T3, Kappa-type opioid receptor (Homo sapiens, UniProt P41145). In words: Displacement of [3H]diprenorphine from human kappa opioid receptor expressed in CHO cells in presence of high sodium by SPA. Type of assay: cell-based.
T3 sequence (P41145 whole entry): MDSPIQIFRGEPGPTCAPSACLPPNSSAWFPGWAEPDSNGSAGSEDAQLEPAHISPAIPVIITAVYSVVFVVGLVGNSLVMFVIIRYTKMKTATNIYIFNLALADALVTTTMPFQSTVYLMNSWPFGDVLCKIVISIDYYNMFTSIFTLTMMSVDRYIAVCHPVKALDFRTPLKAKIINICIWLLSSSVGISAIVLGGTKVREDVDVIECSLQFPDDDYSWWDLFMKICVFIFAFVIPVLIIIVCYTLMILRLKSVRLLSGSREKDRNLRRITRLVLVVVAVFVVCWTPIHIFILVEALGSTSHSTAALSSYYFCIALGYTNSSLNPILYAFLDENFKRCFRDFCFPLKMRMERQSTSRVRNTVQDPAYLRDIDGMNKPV
Assay [4] addresses T2, Mu-type opioid receptor. Briefly: Antagonist activity at human mu opioid receptor expressed in CHO cells by [35S]GTP-gamma-S binding assay. Type of assay: functional, cell-based.
Assay [5] has as its target T3, Kappa-type opioid receptor. In words: Antagonist activity at human kappa opioid receptor expressed in CHO cells by [35S]GTP-gamma-S binding assay. Type of assay: functional, cell-based.
Assay [6] concerns the target T1, Delta-type opioid receptor. Briefly: Antagonist activity at human delta opioid receptor expressed in CHO cells by [35S]GTP-gamma-S binding assay. Type of assay: functional, cell-based.

T1 sequence (P41143 whole entry): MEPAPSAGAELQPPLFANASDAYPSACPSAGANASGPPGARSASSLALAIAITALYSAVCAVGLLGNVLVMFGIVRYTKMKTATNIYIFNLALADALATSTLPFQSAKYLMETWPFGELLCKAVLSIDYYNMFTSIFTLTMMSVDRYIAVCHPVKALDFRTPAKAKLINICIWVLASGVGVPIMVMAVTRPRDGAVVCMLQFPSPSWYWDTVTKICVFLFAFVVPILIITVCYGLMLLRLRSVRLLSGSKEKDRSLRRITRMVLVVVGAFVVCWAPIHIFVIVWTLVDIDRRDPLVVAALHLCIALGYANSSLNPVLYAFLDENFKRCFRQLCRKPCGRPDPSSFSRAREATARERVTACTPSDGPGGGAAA
T2 sequence (P35372 whole entry): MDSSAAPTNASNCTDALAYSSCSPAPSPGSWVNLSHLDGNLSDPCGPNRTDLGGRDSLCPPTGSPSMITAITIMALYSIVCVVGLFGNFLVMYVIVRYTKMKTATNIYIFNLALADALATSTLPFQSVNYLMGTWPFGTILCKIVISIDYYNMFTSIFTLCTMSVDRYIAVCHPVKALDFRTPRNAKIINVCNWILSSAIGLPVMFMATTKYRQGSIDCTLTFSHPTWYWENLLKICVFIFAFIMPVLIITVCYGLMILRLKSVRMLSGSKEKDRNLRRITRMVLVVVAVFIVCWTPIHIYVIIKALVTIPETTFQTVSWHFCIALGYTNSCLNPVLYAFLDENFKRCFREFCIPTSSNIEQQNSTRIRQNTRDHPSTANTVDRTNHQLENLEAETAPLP

With `O=C(c1ccc(Oc2ccc(CNCCc3ccccc3)cc2)nc1)N1CCCCC1`, the Ki in assay [1] was more than 5000 nM; on Mu-type opioid receptor [2], 389 nM; in assay [3], more than 5000 nM.
Turning to `CNC(=N)c1ccc(Oc2ccc(CNCCc3ccccc3)cc2)nc1`, the inhibition constant Ki was 3460 nM in assay [1], 235 nM at Mu-type opioid receptor [2] and more than 5000 nM in assay [3].
As to `CCNC(=O)c1ccc(Oc2ccc(CNCCc3ccccc3)cc2)nc1`, the inhibition constant (Ki) amounted to 674 nM in assay [1], 57.1 nM at Mu-type opioid receptor [2] and 2810 nM in assay [3].
Take `NC(=O)c1ccc(Oc2ccc(CCNCCCc3ccccc3)cc2)nc1`: the figures for the Ki (at Mu-type opioid receptor [4]; in assay [5]) were 18.5 nM and 24.1 nM, respectively. For the same compound, in assay [6], the Kb worked out at 212 nM.
Consider `NC(=O)c1ccc(Oc2ccc(CNCc3ccccc3)cc2)nc1`, for which the figures for the Ki (at Mu-type opioid receptor [4]; in assay [5]) were 4.09 nM and 2.47 nM, respectively. Also, the Kb in assay [6] is 54.1 nM.
Take `NC(=O)c1cccnc1Oc1ccc(CCNCc2ccccc2)cc1`: the values for the Ki (in assay [1]; at Mu-type opioid receptor [2]; in assay [3]) were more than 5000 nM, more than 2500 nM and more than 5000 nM, respectively.
Take `NC(=O)c1ccc(Oc2ccc(CNCCc3ccccc3)cc2)nc1`: the inhibition constant (Ki) on Mu-type opioid receptor [4] came out at 0.07 nM; on Mu-type opioid receptor [2], 0.17 nM.
For `NC(=O)c1ccc(Oc2ccc(CNCCc3ccccc3)cc2)cc1`, the Ki in assay [5] is 1.22 nM; in assay [3] it was 15 nM.
Turning to `NC(=O)c1ccc(Oc2ccc(NCCCc3ccccc3)cc2)nc1`, the Ki (at Mu-type opioid receptor [4]; in assay [5]) was more than 1000 nM throughout. In assay [6], this compound displayed a Kb of more than 1000 nM.
Regarding `O=C(O)c1ccc(Oc2ccc(CCNCc3ccccc3)cc2)nc1`, the results for the inhibition constant Ki (in assay [1]; at Mu-type opioid receptor [2]; in assay [3]) were more than 5000 nM, more than 2500 nM and more than 5000 nM, respectively.
For `CNC(=O)c1ccc(Oc2ccc(CNCCc3ccccc3)cc2)nc1`, the values for the inhibition constant Ki (in assay [1]; at Mu-type opioid receptor [2]; in assay [3]) were 718 nM, 52.3 nM and more than 5000 nM, respectively.
For `NC(=O)c1ccc(Oc2ccc(CCNCCc3ccccc3)cc2)nc1`, the Ki at Mu-type opioid receptor [4] amounted to 16.6 nM; in assay [5], 23.3 nM. The compound further came in with a Kb in assay [6] of 128 nM.
For the compound `C[C@H]1CN(CC[C@H](O)C2CCCCC2)CC[C@@]1(C)c1cccc(O)c1`, the inhibition constant (Ki) in assay [1] came to 4.82 nM. Besides, in assay [6], the Kb came out at 1.19 nM.
For `NC(=O)c1ccc(Oc2ccc(CCCNCc3ccccc3)cc2)nc1`, the Ki on Mu-type opioid receptor [4] was found to be 22.3 nM; in assay [5] it was 45.8 nM. This compound also registered an antagonist dissociation constant (Kb) in assay [6] of 496 nM.
Consider `NS(=O)(=O)c1ccc(Oc2ccc(CCNCc3ccccc3)cc2)cc1`, for which the inhibition constant Ki in assay [1] is more than 5000 nM; on Mu-type opioid receptor [2] it was more than 2500 nM; in assay [3], more than 5000 nM.
In the case of `NC(=O)c1ccnc(Oc2ccc(CCNCc3ccccc3)cc2)c1`, the Ki in assay [1] is more than 5000 nM; on Mu-type opioid receptor [2] it was more than 2500 nM; in assay [3], more than 5000 nM.
On to `NCc1ccc(Oc2ccc(CCNCc3ccccc3)cc2)nc1`, for which the Ki in assay [1] is more than 5000 nM; on Mu-type opioid receptor [2] it was more than 2500 nM; in assay [3], more than 5000 nM.
With `N#Cc1ccc(Oc2ccc(CCNCc3ccccc3)cc2)nc1`, the inhibition constant Ki in assay [1] is more than 5000 nM; on Mu-type opioid receptor [2] it was 1080 nM; in assay [3], more than 5000 nM.
As to `N=C(N)c1ccc(Oc2ccc(CNCCc3ccccc3)cc2)nc1`, the inhibition constant Ki in assay [1] stood at 215 nM; at Mu-type opioid receptor [2], 20.6 nM; in assay [3], 1150 nM.
With `NC(=O)c1ccc(Oc2ccc(CCNCc3ccccc3)cc2)nc1`, the Ki in assay [1] is 70.2 nM; at Mu-type opioid receptor [4] it was 2.25 nM; in assay [5], 18.4 nM; on Mu-type opioid receptor [2] it was 7.44 nM; in assay [3], 136 nM. In addition, the antagonist dissociation constant (Kb) in assay [6] is 23.1 nM.
In the case of `CC(C)NC(=O)c1ccc(Oc2ccc(CNCCc3ccccc3)cc2)nc1`, the inhibition constant (Ki) is 2410 nM in assay [1], 52.3 nM on Mu-type opioid receptor [2] and more than 5000 nM in assay [3].
`NC(=O)c1cccc(Oc2ccc(CCNCc3ccccc3)cc2)n1`: the results for the Ki (in assay [1]; at Mu-type opioid receptor [2]; in assay [3]) were more than 5000 nM, 643 nM and more than 5000 nM, respectively.
For `NC(=O)c1ccc(Oc2ccc(CNCCc3ccccc3)cc2)cn1`, the inhibitory constant (Ki) in assay [1] worked out at 8.54 nM; at Mu-type opioid receptor [4] it was 0.44 nM; in assay [5] it was 9.6 nM; at Mu-type opioid receptor [2] it was 1.77 nM; in assay [3], 69.3 nM. In assay [6], the Kb was 2.86 nM.
Consider `NC(=O)c1ccc(Oc2ccc(CCCNc3ccccc3)cc2)nc1`, for which the inhibition constant (Ki) (on Mu-type opioid receptor [4]; in assay [5]) was more than 1000 nM throughout. For the same compound, the Kb in assay [6] is more than 1000 nM.
